# According to US20030162722A1, “Pharmaceutical compositions comprising acryloyl distamycin derivatives and topoisomerase I and II inhibitors” (priority 2000, published 2003):
# Test system: disseminated L1210 murine leukemia
# Test: Antileukemic activity against disseminated L1210 murine leukemia
# Conditions: PNU 166196 0.52 mg/kg; for ILS % (increase in life span) / Tox (number of toxic deaths/number of mice): L1210 cells 10^5/mouse CD2F1 IV day 0, treatment iv day +1, doxorubicin 10 mg/kg (given 2 h after PNU 166196), alone or combined at the same doses
# Excerpt: For these experiments, PNU 166196 and doxorubicin were solubilized in water for injection.
SMILES,ILS % (increase in life span) [%],Tox (number of toxic deaths/number of mice),"toxicity (in words) (single agents, iv day +1, doxorubicin 10 mg/kg)"
"COc1cccc2c1C(=O)c1c(O)c3c(c(O)c1C2=O)C[C@@](O)(C(=O)CO)C[C@@H]3O[C@H]1C[C@H](N)[C@H](O)[C@H](C)O1 [Doxorubicin, doxorubicin, reference compound]",58,0/10,
"C=C(Br)C(=O)Nc1cc(C(=O)Nc2cc(C(=O)Nc3cc(C(=O)Nc4cc(C(=O)NCCNC(=N)N)n(C)c4)n(C)c3)n(C)c2)n(C)c1.Cl [PNU 166196, N-(5-{[(5-{[(5-{[(2-{[amino(imino)methyl]amino}ethyl)amino]carbonyl}-1-methyl-1H-pyrrol-3-yl)amino]carbonyl}-1-methyl-1H-pyrrol-3-yl)amino]carbonyl}-1-methyl-1H-pyrrol-3-yl)-4-[(2-bromoacryloyl)amino]-1-methyl-1H-pyrrole-2-carboxamide hydrochloride]",33,0/10,without toxicity
